From patent US20240122930A1, “INTEGRIN INHIBITORS AND USES THEREOF IN COMBINATION WITH OTHER AGENTS” (Pliant Therapeutics, Inc., priority 2022, published 2024)
“Also recorded” adds a separate entry of the source.

Key:
pSmad2/Smad2 = assay: Alveolar (BAL) pSmad2/Smad2, change from baseline at 24 hours (FIG. 12, prior studies); type: in vivo, human; details: 80 mg and 160 mg, p<0.0001 at both doses
Source text: FIG. 12 through FIG. 33 illustrate various details and results from the clinical trial. […] In FIG. 12, BAL refers to bronchoalveolar lavage; pSmad2/Smad2 refers to ratio of phosphorylated Smad2 to total Smad2; and QD refers to once daily. **** refers to p<0.0001.

lung Col1a1 expression [1] = assay: Precision cut lung slices, chronic bleomycin exposure, Col1a1 expression; type: cell-based, mice (C57BL/6); details: chronic bleomycin PCLS, 7 days culture
Description: Mice (C57BL/6) were administered 3 U/kg of bleomycin (Teva Pharmaceuticals; North Wales, PA) on Day 0 and 1 U/kg of bleomycin on days 14, 28, 42 and 56 via oropharyngeal aspiration while under anesthesia. At day 70, 14 days after the final bleomycin insult, precision cut lung slices were obtained. […] The lobes were then subjected to precision slicing to obtain samples for culture using a microtome (Compresstome VF-300-OZ, Precisionary; Greenville, NC). Individual slices were distributed in a multiwell culture plate and cultured for 7 days under control (DMSO) and test compound conditions. The viability of the slices over the course of culturing was confirmed by WST-1 assay of mitochondrial activity. […] Compound 5; and the small molecule ALK5 inhibitor. […] Compound 5 was run at approximate IC50 for inhibition of TGF-beta activation by αVβ6.

[2] = Phase 2a clinical trial: pharmacokinetics, sparse sampling, % unbound; type: in vivo, human; details: b1346 concentrations; b1380 unbound concentrations
Source text: Overall Summary of Pharmacokinetics. Based on sparse sampling, overall Compound 5 pharmacokinetics and % unbound in IPF were consistent with that of previous studies. […] Overall % unbound was ˜0.3 to 0.5%. Full PK curve will be predicted using population PK model to project AUC0-24 and Cmax.
Pharmacokinetic Evaluation. Sparse PK sampling was utilized for pharmacokinetic evaluation.

[3] = tested on: patients with idiopathic pulmonary fibrosis (IPF); assay: Phase 2a randomized, double-blind, placebo-controlled trial in IPF; type: in vivo, human
Source text: The exploratory endpoints of the trial measured changes in forced vital capacity (FVC), HRCT-based Quantitative Lung Fibrosis score (QLF), and selected biomarkers over 3 months of treatment.

[4] = tested on: participants with idiopathic pulmonary fibrosis (IPF); assay: Phase 2a clinical trial: patient-reported cough severity visual analog scale (VAS); type: in vivo, human; details: 320 mg, weeks 12 and 24, ITT; worsening on placebo
Description: Of interest, patients receiving Compound 5 experienced a positive impact on cough severity, while cough severity in patients receiving placebo worsened over time. […] The data histograms from left to right are 320 mg Compound 5 treatment at week 12, 320 mg Compound 5 treatment at week 24, placebo treatment at week 12, and placebo treatment at week 24. […] Cough VAS measured patient reported cough severity over last 2 weeks on scale of 0-100 mm.

[5] = tested on: PRO-C6, Type VI collagen synthesis neoepitope; assay: Phase 2a clinical trial: serum biomarker PRO-C6; type: in vivo, human; details: IPF participants, 40 to 320 mg, 4 and 12 weeks
Description: Blank columns represent 40 mg Compound 5 dosage. Grid pattern filled columns represent 80 mg Compound 5 dosage. Diagonal line filled columns represent 160 mg Compound 5 dosage. Dot filled columns represent all participants dosed with Compound 5. […] In FIG. 21, LS refers to Least Squares and SEM refers to Standard Error of Mean.
PRO-C3 and PRO-C6, serum biomarkers of type III and VI collagen synthesis, respectively, were previously shown to be elevated in patients with IPF and associated with progressive disease, according to Respir Res. 2019 Jul. 12; 20(1):148. Doi: 10.1186/s12931-019-1118-7, which is herein incorporated by reference in its entirety. Change from baseline was analyzed using a mixed model for repeated measures with terms for treatment group, visit, baseline value, and treatment-by-visit interaction. LS refers to Least Squares; SE refers to Standard Error.

[6] = tested on: explanted human lung tissue from patients with idiopathic pulmonary fibrosis; assay: Fibrosis-related gene expression (nCounter Fibrosis Panel) in precision cut lung slices; type: cell-based
Source text: Briefly, tissue samples from patients with IPF were acquired at the time of lung transplantation. […] Treated slices were lysed in mRNA-compatible buffer for gene expression analysis. For this study, the lysate from n=6 slices per treatment per lung were pooled for analysis using the nCounter Fibrosis Panel (Nanostring) on the nCounter Max analyzer (Nanostring). This commercially available panel of 770 genes includes genes related to initial tissue damage response, chronic inflammation, proliferation of pro-fibrotic cells, and tissue modification leading to fibrotic disease. Technical quality control and normalization of raw Nanostring mRNA count data was performed using an R framework developed by Bhattacharya et al. (Bhattacharya A. et al., Brief Bioinform. 2021 May 20; 22(3):bbaa163; herein incorporated by reference in its entirety). The R packages limma (see URL www.bioconductor.org/packages/release/bioc/html/limma.html, which is incorporated herein by reference in its entirety) and voom (Law, C.

lung Col1a1 expression [7] = assay: Precision cut lung slices, chronic bleomycin exposure, versus and with nintedanib and pirfenidone; type: cell-based, mice (C57BL/6); details: chronic bleomycin PCLS; for lung slice Col1a1 expression vs DMSO vehicle control slices: 7 days
Description: Mice (C57BL/6) were administered 3 U/kg of bleomycin (Teva Pharmaceuticals; North Wales, PA) on Day 0 and 1 U/kg of bleomycin on days 14, 28, 42 and 56 via oropharyngeal aspiration while under anesthesia. At day 70, 14 days following the final bleomycin insult, precision cut lung slices were obtained. […] The lobes were then subjected to precision slicing to obtain samples for culture using a microtome (Compresstome VF-300-OZ, Precisionary; Greenville, NC). Individual slices were distributed in a multiwell culture plate and cultured for 7 days under control (DMSO) and test compound conditions. The viability of the slices over the course of culturing was confirmed by WST-1 assay of mitochondrial activity. During the culture period, slices in the control group were treated with DMSO and slices in the test group were treated with a DMSO solution of one of: […]

[8] = tested on: normal human bronchial epithelial cells; assay: LAP adhesion assay, normal human bronchial epithelial cells (xCELLigence); type: cell-based; details: FIG. 3A
Description: Two latency associated peptide (LAP) adhesion binding assays were devised using primary human lung cells, including normal (healthy) human bronchial epithelial cells and human lung fibroblasts (healthy and IPF).
Human bronchial epithelial cells are known to express αVβ6 integrin in culture. Human bronchial epithelial cells were prepared for the assay by dissociation with trypsin/EDTA and were then seeded at 20,000 cells per well on 96 well plates (ACEA Bioscience E-plate View, Acea Biosciences; San Diego, CA) previously coated with 5 μg/ml of recombinant human LAP (R&D Systems; Minneapolis, MN) and blocked with 4% bovine serum albumin.

[9] = 12 weeks, 40/80/160 mg once daily
[10] = FIG. 24 Venn region E: only altered by Compound 5 in the absence of pirfenidone
[11] = gene expression, combination vs individual treatment
[12] = single treatment, adj. p-value <0.05

## COCCN(CCCCc1ccc2c(n1)NCCC2)CC[C@H](Nc1ncnc2ccccc12)C(=O)O [Compound 5, (S)-4-((2-methoxyethyl) (4-(5,6,7,8-tetrahydro-1,8-naphthyridin-2-yl)butyl)amino)-2-(quinazolin-4-ylamino) butanoic acid]
pSmad2/Smad2
  Alveolar pSmad2/Smad2, Percentage Change from Baseline at 24 Hours vs. placebo: statistically significant
Lung Col1a1 expression [1]
  lung Col1a1 expression, normalized to DMSO control slices: decreased lung Col1a1 expression substantially
[2]
  Concentrations in IPF participants versus dose: increased approximately proportionally with dose
[3]; 40 mg, 80 mg, 160 mg once daily, 12 weeks
  tolerability: well tolerated
[3]; 80 mg treatment group, 12 weeks
  increase in FVC relative to baseline: +24.6 mL
[3]; [9]
  severity of most treatment emergent adverse events (TEAE): mild or moderate
  treatment related deaths or drug related serious adverse events (SAE): No treatment related deaths or drug related serious adverse events
[3]; 40/80/160 mg once daily
  plasma concentrations vs dose: generally dose proportional increases
[3]; 67 patients treated, 40/80/160 mg once daily
  patients who completed 12 weeks of treatment with no discontinuations due to adverse events: 97%
[3]; administration of Compound 5 alone, patients
  serious adverse events: did not result in serious adverse events
[3]; change from baseline at 4 and 12 weeks vs. placebo, FIG. 33
  serum biomarkers of collagen synthesis: reduced
[3]; combinations with nintedanib or with pirfenidone, patients
  treatment-emergent adverse events (TEAEs): resulted in treatment-emergent adverse events
[3]; pooled Compound 5 groups
  reduction in FVC decline over 12 weeks versus placebo: approximately 80%
[3]; relative to the placebo group, FIG. 40
  circulating biomarkers integrin beta-6 (ITGB6) and Type III collagen synthesis neoepitope (PRO-C3) levels: reduced
[4]
  Patient-reported cough severity (VAS), change from baseline: reduced
[5]
  Serum PRO-C6, change from baseline relative to placebo: decreased; also recorded: reduced
[6]; [10]
  Genes Down-regulated with Compound 5 and Pirfenidone Alone or in Combination, region E: COL3A1 and COL6A3 and LOXL1 and MARCO and MMP8 and PLPP4
  Genes Up-regulated with Compound 5 and Pirfenidone Alone or in Combination, region E: APOA2 and CIITA and IFI6 and NOS1 and OAS1 and TTN
[6]; FIG. 24 Venn region F: altered by Compound 5 or pirfenidone alone, but not by Compound 5 in combination with pirfenidone
  Genes Down-regulated with Compound 5 and Pirfenidone Alone or in Combination, region F: CXCR4; also recorded: PECAM1
[6]; IPF precision cut lung slices, 7 days, only altered by Compound 5 in the absence of nintedanib
  Genes up-regulated, Venn region E (FIG. 24): APOA2 and CCL13 and CIITA and IFI6
[6]; [11]
  % Reduction APOC2: −1.20%
  % Reduction CDH2: 23.87%
  % Reduction COL1A1: 38.78%
  % Reduction THBS2: 31.47%
[6]; [12]
  logFC ALDH7A1: 0.57
  logFC OAS1: 0.6104
Lung Col1a1 expression [7]; 7 days culture, single agents
  lung Col1a1 expression vs DMSO vehicle control slices: substantial, statistically significant (p<0.01 vs vehicle) decrease
Lung Col1a1 expression [7]; in combination with nintedanib
  lung slice Col1a1 expression vs DMSO vehicle control slices: substantial, statistically significant (p<0.01 vs vehicle) decrease
Lung Col1a1 expression [7]; in combination with pirfenidone
  lung slice Col1a1 expression vs DMSO vehicle control slices: substantial, statistically significant (p<0.01 vs vehicle) decrease
[8]
  normal bronchial epithelial cell adhesion to LAP: substantially inhibited
